The text below walks through data of publication PMC2822059 (Nature chemical biology, 2010).

The structures appear in SMILES notation.

One test relates to H976Y HDAC4. The conditions noted are these: mutant versus wild type; cited from earlier work.
In test [1] the test system is acetylated histones (AcH3K18), Jurkat cells. In words: Immunoblot for acetylated histones in treated cells. The conditions noted are these: 24 hours, time- and dose-dependent. In kind it is cell-based, human.
Test [2] has as its system acetylated alpha-tubulin (AcTub), Jurkat cells. In words: Immunoblot for acetylated alpha-tubulin in treated cells. The format is cell-based, human. The conditions noted are these: 24 hours, time- and dose-dependent. On the technique in general: In western blotting, separated proteins are transferred to a membrane and probed.

As to `O=C(/C=C/c1ccc(CN(CCO)CCc2c[nH]c3ccccc23)cc1)NO` [LAQ-824], the “increased affinity for H976Y HDAC4 gain of function mutant” value in the test on H976Y HDAC4 was 100 fold. As to `O=C(/C=C/c1ccc(C(=O)N/N=C/c2ccc(O)c(O)c2O)cc1)NO` [pandacostat], the “hyperacetylation of Class I deacetylase targets (bulk histones)” value in test [1] was “confers hyperacetylation”. In addition, the “hyperacetylation of HDAC6 target α-tubulin” value in test [2] was “confers hyperacetylation”.
